Class data for 35 molecules are collected here from US20070010671A1, “Novel quinazoline derivatives and methods of treatment related to the use thereof” (priority 2003, published 2007).

Each structure is given as a SMILES string.

The assay concerns the target MCH receptor (Homo sapiens, UniProt Q99705). The assay can be described thus: High throughput functional screening FLIPR/FDSS6000: inhibition of MCH-evoked intracellular Ca2+ changes. Format: cell-based. As to conditions: class by percent of control at 10^-7 M or IC50. An outline of the steps: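 Fluo4 fluorescence (Ex 488 nm, Em 530 nm) tracked MCH-evoked [Ca2+]i transients over 290 s by FLIPR or FDSS. Cells carried a constitutively active, non-endogenous receptor version. Compounds were added 3 min before a 50 nM MCH challenge.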

On to `COc1ccc(CCNC(=S)NC[C@H]2CC[C@@H](Nc3nc(N(C)C)c4ccccc4n3)CC2)cc1OC` [compound 665, N-[2-(3,4-dimethoxyphenyl)ethyl]-N′-[(cis-4-{[4-(dimethylamino)quinazolin-2-yl]amino}cyclohexyl)methyl]thiourea], for which the class is recorded as 2 (Class 2: The value of percent of control at 10^−7 M was from 40% to 60% or the value of IC50 was from 50 nM to 200 nM.).

As for `CN(C)c1nc(N[C@H]2CC[C@@H](CNC(=S)NCCc3ccc(Cl)cc3)CC2)nc2ccccc12` [compound 666], the class is reported as 3 (Class 3: The value of percent of control at 10^−7 M was more than 60% or the value of IC50 was more than 200 nM.).

In the case of `CN(C)c1nc(N[C@H]2CC[C@@H](CNC(=S)Nc3cc(Cl)c(Cl)c(Cl)c3Cl)CC2)nc2ccccc12` [compound 667], the class was 3 (Class 3: The value of percent of control at 10^−7 M was more than 60% or the value of IC50 was more than 200 nM.). As to `CN(C)c1nc(N[C@H]2CC[C@@H](CNC(=S)Nc3cc(Cl)c(Cl)cc3Cl)CC2)nc2ccccc12` [compound 668], the class is 3 (Class 3: The value of percent of control at 10^−7 M was more than 60% or the value of IC50 was more than 200 nM.). In the case of `CN(C)c1nc(N[C@H]2CC[C@@H](CNC(=S)Nc3c(Cl)cc(Cl)cc3Cl)CC2)nc2ccccc12` [compound 670, N-[(cis-4-{[4-(dimethylamino)quinazolin-2-yl]amino}cyclohexyl)methyl]-N′-(2,4,6-trichlorophenyl)thiourea], the class is 2 (Class 2: The value of percent of control at 10^−7 M was from 40% to 60% or the value of IC50 was from 50 nM to 200 nM.). Regarding `CN(C)c1nc(N[C@H]2CC[C@@H](CNC(=S)Nc3c(F)cc(F)cc3F)CC2)nc2ccccc12` [compound 671], the class is reported as 3 (Class 3: The value of percent of control at 10^−7 M was more than 60% or the value of IC50 was more than 200 nM.).

`Cc1cc(C)c(NC(=S)NC[C@H]2CC[C@@H](Nc3nc(N(C)C)c4ccccc4n3)CC2)c(C)c1` [compound 672, N-[(cis-4-{[4-(dimethylamino)quinazolin-2-yl]amino}cyclohexyl)methyl]-N′-mesitylthiourea]: the class was 2 (Class 2: The value of percent of control at 10^−7 M was from 40% to 60% or the value of IC50 was from 50 nM to 200 nM.).

In the case of `Cc1ccc(NC(=S)NC[C@H]2CC[C@@H](Nc3nc(N(C)C)c4ccccc4n3)CC2)c(C)c1` [compound 673], the class is on record as 3 (Class 3: The value of percent of control at 10^−7 M was more than 60% or the value of IC50 was more than 200 nM.). Turning to `CCc1cccc(CC)c1NC(=S)NC[C@H]1CC[C@@H](Nc2nc(N(C)C)c3ccccc3n2)CC1` [compound 674, N-(2,6-diethylphenyl)-N′-[(cis-4-{[4-(dimethylamino)quinazolin-2-yl]amino}cyclohexyl)methyl]thiourea], the class is 1 (Class 1: The value of percent of control at 10^−7 M was less than 40% or the value of IC50 was less than 50 nM.). With `CC(C)c1cccc(C(C)C)c1NC(=S)NC[C@H]1CC[C@@H](Nc2nc(N(C)C)c3ccccc3n2)CC1` [compound 675] the figure was 2 (Class 2: The value of percent of control at 10^−7 M was from 40% to 60% or the value of IC50 was from 50 nM to 200 nM.); with `Cc1ccc(NC(=S)NC[C@H]2CC[C@@H](Nc3nc(N(C)C)c4ccccc4n3)CC2)c(Br)c1` [compound 676], 3 (Class 3: The value of percent of control at 10^−7 M was more than 60% or the value of IC50 was more than 200 nM.).

`CN(C)c1nc(N[C@H]2CC[C@@H](CNC(=S)Nc3cc(C(F)(F)F)ccc3Cl)CC2)nc2ccccc12` [compound 677]: the class was 3 (Class 3: The value of percent of control at 10^−7 M was more than 60% or the value of IC50 was more than 200 nM.). For the molecule `CN(C)c1nc(N[C@H]2CC[C@@H](CNC(=S)NCc3ccccc3Cl)CC2)nc2ccccc12` [compound 678], the class was 3 (Class 3: The value of percent of control at 10^−7 M was more than 60% or the value of IC50 was more than 200 nM.). Next, `CCc1cccc(C)c1NC(=S)NC[C@H]1CC[C@@H](Nc2nc(N(C)C)c3ccccc3n2)CC1` [compound 679]: 2 (Class 2: The value of percent of control at 10^−7 M was from 40% to 60% or the value of IC50 was from 50 nM to 200 nM.). Next, `CC(C)c1ccccc1NC(=S)NC[C@H]1CC[C@@H](Nc2nc(N(C)C)c3ccccc3n2)CC1` [compound 680, N-[(cis-4-{[4-(dimethylamino)quinazolin-2-yl]amino}cyclohexyl)methyl]-N′-(2-isopropylphenyl)thiourea]: 2 (Class 2: The value of percent of control at 10^−7 M was from 40% to 60% or the value of IC50 was from 50 nM to 200 nM.); `CSc1cccc(NC(=S)NC[C@H]2CC[C@@H](Nc3nc(N(C)C)c4ccccc4n3)CC2)c1` [compound 681]: 3 (Class 3: The value of percent of control at 10^−7 M was more than 60% or the value of IC50 was more than 200 nM.). Next, `CN(C)c1nc(N[C@H]2CC[C@@H](CNC(=S)NCc3ccc(Cl)c(Cl)c3)CC2)nc2ccccc12` [compound 682]: 3 (Class 3: The value of percent of control at 10^−7 M was more than 60% or the value of IC50 was more than 200 nM.); `COc1cc(NC(=S)NC[C@H]2CC[C@@H](Nc3nc(N(C)C)c4ccccc4n3)CC2)cc(OC)c1` [compound 683]: 3 (Class 3: The value of percent of control at 10^−7 M was more than 60% or the value of IC50 was more than 200 nM.); `Cc1cc(C)cc(NC(=S)NC[C@H]2CC[C@@H](Nc3nc(N(C)C)c4ccccc4n3)CC2)c1` [compound 684]: 3 (Class 3: The value of percent of control at 10^−7 M was more than 60% or the value of IC50 was more than 200 nM.).

As to `CN(C)c1nc(N[C@H]2CC[C@@H](CNC(=S)Nc3cccc(OCc4ccccc4)c3)CC2)nc2ccccc12` [compound 685], the class is reported as 3 (Class 3: The value of percent of control at 10^−7 M was more than 60% or the value of IC50 was more than 200 nM.). Next, `CN(C)c1nc(N[C@H]2CC[C@@H](CNC(=S)Nc3cccc(C(=O)O)c3)CC2)nc2ccccc12` [compound 686]: 3 (Class 3: The value of percent of control at 10^−7 M was more than 60% or the value of IC50 was more than 200 nM.). With `Cc1ccc(NC(=S)NC[C@H]2CC[C@@H](Nc3nc(N(C)C)c4ccccc4n3)CC2)cc1Cl` [compound 687] the figure was 3 (Class 3: The value of percent of control at 10^−7 M was more than 60% or the value of IC50 was more than 200 nM.). Consider `COC(=O)c1cccc(NC(=S)NC[C@H]2CC[C@@H](Nc3nc(N(C)C)c4ccccc4n3)CC2)c1` [compound 688], for which the class was 3 (Class 3: The value of percent of control at 10^−7 M was more than 60% or the value of IC50 was more than 200 nM.). Next, `CN(C)c1nc(N[C@H]2CC[C@@H](CNC(=S)NCCCc3ccccc3)CC2)nc2ccccc12` [compound 689]: 3 (Class 3: The value of percent of control at 10^−7 M was more than 60% or the value of IC50 was more than 200 nM.); `CN(C)c1nc(N[C@H]2CC[C@@H](CNC(=S)Nc3ccc(OCc4ccccc4)cc3)CC2)nc2ccccc12` [compound 690]: 3 (Class 3: The value of percent of control at 10^−7 M was more than 60% or the value of IC50 was more than 200 nM.). Take `Cc1cc(Br)cc(C)c1NC(=S)NC[C@H]1CC[C@@H](Nc2nc(N(C)C)c3ccccc3n2)CC1` [compound 691, N-(4-bromo-2,6-dimethylphenyl)-N′-[(cis-4-{[4-(dimethylamino)quinazolin-2-yl]amino}cyclohexyl)methyl]thiourea]: the class was 1 (Class 1: The value of percent of control at 10^−7 M was less than 40% or the value of IC50 was less than 50 nM.).

Turning to `Cc1cc(Br)ccc1NC(=S)NC[C@H]1CC[C@@H](Nc2nc(N(C)C)c3ccccc3n2)CC1` [compound 692], the class is listed as 3 (Class 3: The value of percent of control at 10^−7 M was more than 60% or the value of IC50 was more than 200 nM.). With `CN(C)c1nc(N[C@H]2CC[C@@H](CNC(=S)Nc3ccc(Br)cc3C(F)(F)F)CC2)nc2ccccc12` [compound 693, N-[4-bromo-2-(trifluoromethyl)phenyl]-N′-[(cis-4-{[4-(dimethylamino)quinazolin-2-yl]amino}cyclohexyl)methyl]thiourea] the figure was 2 (Class 2: The value of percent of control at 10^−7 M was from 40% to 60% or the value of IC50 was from 50 nM to 200 nM.); with `Cc1cc(Cl)ccc1NC(=S)NC[C@H]1CC[C@@H](Nc2nc(N(C)C)c3ccccc3n2)CC1` [compound 694], 3 (Class 3: The value of percent of control at 10^−7 M was more than 60% or the value of IC50 was more than 200 nM.). With `CN(C)c1nc(N[C@H]2CC[C@@H](CNC(=S)NCc3ccc(Cl)cc3)CC2)nc2ccccc12` [compound 695] the figure was 3 (Class 3: The value of percent of control at 10^−7 M was more than 60% or the value of IC50 was more than 200 nM.); with `CCOC(=O)c1ccc(NC(=S)NC[C@H]2CC[C@@H](Nc3nc(N(C)C)c4ccccc4n3)CC2)cc1` [compound 696], 3 (Class 3: The value of percent of control at 10^−7 M was more than 60% or the value of IC50 was more than 200 nM.). Next, `CN(C)c1nc(N[C@H]2CC[C@@H](CNC(=S)NCc3ccc(F)cc3)CC2)nc2ccccc12` [compound 698]: 3 (Class 3: The value of percent of control at 10^−7 M was more than 60% or the value of IC50 was more than 200 nM.); `CC(C)c1ccc(NC(=S)NC[C@H]2CC[C@@H](Nc3nc(N(C)C)c4ccccc4n3)CC2)cc1` [compound 699]: 3 (Class 3: The value of percent of control at 10^−7 M was more than 60% or the value of IC50 was more than 200 nM.); `COc1ccc(NC(=S)NC[C@H]2CC[C@@H](Nc3nc(N(C)C)c4ccccc4n3)CC2)c([N+](=O)[O-])c1` [compound 700]: 3 (Class 3: The value of percent of control at 10^−7 M was more than 60% or the value of IC50 was more than 200 nM.). In the case of `COc1ccc(CNC(=S)NC[C@H]2CC[C@@H](Nc3nc(N(C)C)c4ccccc4n3)CC2)cc1` [compound 701], the class is given as 3 (Class 3: The value of percent of control at 10^−7 M was more than 60% or the value of IC50 was more than 200 nM.).
